Test [1] deals with immobilized TSP-1 (thrombospondin from human platelets). The experiment in a line: ELISA competition by unlabeled TAX2. Particulars: biotinylated TAX2 10 μg/mL; unlabeled competitor 0.001 to 5 mg/mL. In kind it is binding. The protocol: Microtiter plates (Nunc, ThermoFisher Scientific, Courtaboeuf, France) were coated overnight at 4°C with 0.5 μg TSP-1 in sodium carbonate-bicarbonate (BupH) buffer (Thermo Fisher Scientific). Plates were washed with PBS 0.1% BSA (Sigma-Aldrich) and non-specific sites were saturated during 30 min using 1% (w/v) BSA in BupH buffer. Biotin-labeled peptide (10 μg/mL, determined after dose-response assay from 0.01 to 100 μg/mL) was added in buffer containing 0.5% (w/v) BSA and incubated for 3 h at room temperature. Non-labeled peptide (0.001 to 5 mg/mL) was used as selective competitor. Plates were washed with PBS containing 0.1% (w/v) BSA and treated for 30 min with mouse anti-biotin antibody. Bound antibody was quantified using the mouse IgG Elite Vectastain ABC kit (Vector Laboratories) followed by incubation with 1-Step Turbo TMB substrate as a chromogen (ThermoFisher Scientific). The reaction was stopped with 0.5 M H2SO4 and absorbance was read at 450 nm.
(ELISA stands for enzyme-linked immunosorbent assay.)

Test [2] concerns CD36-containing complex / activated VEGFR2. The experiment in a line: CD36 co-immunoprecipitation of activated VEGFR2. In kind it is cell-based, human. The settings on record: HUVECs, 100 μM for 12 h, then 30 ng/mL VEGF 5 min. How it is done:
Figure 3 Anti-angiogenic properties of TAX2 are mediated by TSP-1 binding to CD36 A. Expression of CD36 in HUVECs was assessed by immunoblotting (left panel) and immunofluorescence staining (right panel, red). Nuclei were counterstained with DAPI (blue). B. HUVECs were incubated with 100 μM cyclic TAX2 or in control conditions for 24 h. Then, CD36-containing complexes were co-immunoprecipitated from whole cell extracts (non-specific IgGs were used as a negative control for immunoprecipitation). Immunocomplexes were submitted to SDS-PAGE and immunoblotted (IB) by using specific antibodies for TSP-1 and CD36. The presence of TSP-1 in immunocomplexes was quantified by densitometric analysis relative to immunoprecipitated CD36. C. VEGFR2 phosphorylation induced by VEGF in the presence of TAX2. After overnight serum starvation, HUVECs were pre-treated with 100 μM TAX2 or control for 12 h, then incubated with 30 ng/mL VEGF for 5 min. […] Data are expressed as the mean ± SE (n = 3; *p < 0.05, ANOVA). […] Quantification of total tube-like network length was realized using ImageJ software E. Branching points F. and nodal structures G. were numbered using the S.CORE web-based system. Data are expressed as the mean ± SE (n = 3; *p < 0.05, ANOVA). […]

Regarding “CEVSQLLKGDAC (disulfide) [TAX2, CD47-derived cyclic disulfide dodecapeptide …]”, in test [1], the “competition with biotinylated TAX2 for TSP-1 binding” value is reported as “Competitive binding occurred in a dose-dependent fashion”. The “association of activated VEGFR2 to a CD36-containing complex” value in test [2] is “association of activated VEGFR2 to a CD36-containing complex”.

Values taken from PMC4627230, “Identification of TAX2 peptide as a new unpredicted anti-cancer agent” (Oncotarget, 2015).
